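Five compound concentrations were applied to cells in 96-well plates for 48 hours; endpoints were derived by simple linear interpolation of the resulting dose-response curve. Abbreviation: GI50, concentration required for 50% inhibition of growth.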 Active and inactive are the calls of the source. Cut-off read from the data, not from the text of the source: active = GI50 up to about 1.1 µM and inactive = higher.
Columns and labels:
Test in all cases: DTP human tumour cell line panel, 48 h
NCI-H226 = tested on: NCI-H226
SNB-19 = tested on: SNB-19
HCT-116 = tested on: HCT-116
BT-549 = tested on: BT-549
Hs-578T = tested on: Hs-578T
MDA-MB-435 = tested on: MDA-MB-435
SN12C = tested on: SN12C
SNB-75 = tested on: SNB-75
UACC-62 = tested on: UACC-62
SK-MEL-5 = tested on: SK-MEL-5
HCT-15 = tested on: HCT-15
UO-31 = tested on: UO-31
K562 = tested on: K562
IGROV-1 = tested on: IGROV-1
T47D = tested on: T47D
M19-MEL = tested on: M19-MEL
SK-MEL-2 = tested on: SK-MEL-2
TK-10 = tested on: TK-10
HOP-18 = tested on: HOP-18
LOX IMVI = tested on: LOX IMVI
EKVX = tested on: EKVX
NCI/ADR-RES = tested on: NCI/ADR-RES
A498 = tested on: A498
XF498 = tested on: XF498
786-0 = tested on: 786-0
MDA-MB-231 = tested on: MDA-MB-231
OVCAR-4 = tested on: OVCAR-4
NCI-H460 = tested on: NCI-H460
MOLT-4 = tested on: MOLT-4
CCRF-CEM = tested on: CCRF-CEM
OVCAR-3 = tested on: OVCAR-3
KM12 = tested on: KM12
HT-29 = tested on: HT-29
MDA-N = tested on: MDA-N
SK-MEL-28 = tested on: SK-MEL-28
HOP-62 = tested on: HOP-62
SF-268 = tested on: SF-268
RXF 393 = tested on: RXF 393
U-251 = tested on: U-251
SW-620 = tested on: SW-620
PC-3 = tested on: PC-3
HL-60 = tested on: HL-60
NCI-H522 = tested on: NCI-H522
SF-295 = tested on: SF-295
M14 = tested on: M14
MCF7 = tested on: MCF7
HCC 2998 = tested on: HCC 2998
OVCAR-5 = tested on: OVCAR-5
Malme-3M = tested on: Malme-3M
SK-OV-3 = tested on: SK-OV-3
DLD-1 = tested on: DLD-1
HOP-92 = tested on: HOP-92
OVCAR-8 = tested on: OVCAR-8
DMS-273 = tested on: DMS-273
DU-145 = tested on: DU-145
DMS-114 = tested on: DMS-114
COLO 205 = tested on: COLO 205
NCI-H23 = tested on: NCI-H23
SF-539 = tested on: SF-539
UACC-257 = tested on: UACC-257
RPMI-8226 = tested on: RPMI-8226
ACHN = tested on: ACHN
KM-20L2 = tested on: KM-20L2

With `CN(C)CCN1C(=O)c2cccc3cc(N)cc(c23)C1=O` [AMONAFIDE] the GI50 (NCI-H226) was 2.4 µM (inactive), the GI50 (SNB-19) was 4.21 µM (inactive) and the GI50 (HCT-116) was 1.87 µM (inactive). The GI50 (BT-549) was 4.01 µM (inactive), the GI50 (Hs-578T) was 6.21 µM (inactive) and the GI50 (MDA-MB-435) was 3.37 µM (inactive). The GI50 (SN12C) was 3.19 µM (inactive), the GI50 (SNB-75) was 5.33 µM (inactive) and the GI50 (UACC-62) was 3.38 µM (inactive). The GI50 (SK-MEL-5) was 2.9 µM (inactive), the GI50 (HCT-15) was 2.6 µM and the GI50 (UO-31) was 4.18 µM (inactive). For the same compound, the GI50 (K562) was 3.23 µM (inactive), the GI50 (IGROV-1) was 3.49 µM (inactive) and the GI50 (T47D) was 4.5 µM (inactive). The GI50 (M19-MEL) was 4.19 µM (inactive), the GI50 (SK-MEL-2) was 2.46 µM (inactive) and the GI50 (TK-10) was 3.89 µM (inactive). For the same compound, the GI50 (HOP-18) was 5.2 µM (inactive), the GI50 (LOX IMVI) was 2.46 µM (inactive) and the GI50 (EKVX) was 5.94 µM (inactive). The GI50 (NCI/ADR-RES) was 3.33 µM (inactive), the GI50 (A498) was 3.58 µM (inactive) and the GI50 (XF498) was 0.946 µM (active). The GI50 (786-0) was 2.2 µM (inactive), the GI50 (MDA-MB-231) was 2.46 µM (inactive) and the GI50 (OVCAR-4) was 4.71 µM (inactive). The GI50 (NCI-H460) was 0.767 µM (active), the GI50 (MOLT-4) was 0.804 µM (active) and the GI50 (CCRF-CEM) was 1.91 µM (inactive). The GI50 (OVCAR-3) was 5.81 µM (inactive), the GI50 (KM12) was 4.37 µM (inactive) and the GI50 (HT-29) was 3.3 µM (inactive). The GI50 (MDA-N) was 2.9 µM (inactive), the GI50 (SK-MEL-28) was 6.84 µM (inactive) and the GI50 (HOP-62) was 2.43 µM (inactive). The GI50 (SF-268) was 5.46 µM (inactive), the GI50 (RXF 393) was 4.06 µM (inactive) and the GI50 (U-251) was 3.64 µM (inactive). For the same compound, the GI50 (SW-620) was 1.65 µM (inactive), the GI50 (PC-3) was 2.01 µM (inactive) and the GI50 (HL-60) was 2.24 µM (inactive). The GI50 (NCI-H522) was 3.71 µM (inactive), the GI50 (SF-295) was 3.46 µM (inactive) and the GI50 (M14) was 3.72 µM (inactive). For the same compound, the GI50 (MCF7) was 1.87 µM (inactive), the GI50 (HCC 2998) was 2.48 µM (inactive) and the GI50 (OVCAR-5) was 4.83 µM (inactive). The GI50 (Malme-3M) was 3.31 µM (inactive), the GI50 (SK-OV-3) was 4.42 µM (inactive) and the GI50 (DLD-1) was 5.38 µM (inactive). For the same compound, the GI50 (HOP-92) was 3.23 µM (inactive), the GI50 (OVCAR-8) was 2.14 µM (inactive) and the GI50 (DMS-273) was 2.07 µM (inactive). The GI50 (DU-145) was 2.94 µM (inactive), the GI50 (DMS-114) was 4.21 µM (inactive) and the GI50 (COLO 205) was 1.55 µM (inactive). For the same compound, the GI50 (NCI-H23) was 3.91 µM (inactive), the GI50 (SF-539) was 3.71 µM (inactive) and the GI50 (UACC-257) was 4.36 µM (inactive). The GI50 (RPMI-8226) was 2.49 µM (inactive), the GI50 (ACHN) was 0.718 µM (active) and the GI50 (KM-20L2) was 3.99 µM (inactive).

— ChEMBL document CHEMBL1201862, “PubChem BioAssay data set” (2004)
